This passage reports IC50 results from patent US10065941B2, “Aminotriazine derivative and pharmaceutical composition comprising the same” (Shionogi & Co., Ltd., priority 2013, dated 2018).

SMILES strings stand for the structures.

For orientation: IC50 means the point on the concentration scale where inhibition reaches its midpoint. Higher therefore signals weaker potency in that assay.

In the experiment the target is human P2X3 receptor (Homo sapiens (Human), UniProt P56373). The experiment can be described thus: Evaluation of human P2X3 receptor inhibitory activity (Test Example 1). Format: cell-based. The settings on record: C6BU-1 cell transfected with human P2X3 receptor gene, FLIPR 384. As to the method: Stably expressing cell line (C6BU-1 cell transfected with human P2X3 receptor gene (GenBank accession number Y07683) was used. The cells were seeded in a 384-well PDL-coated microtiter plate at a concentration of 3000 cells/well and cultured in the medium (8.3% fetal bovine serum, 8.3% horse serum, and 1% antibiotic and antifungal in DMEM) for one day at 37° C. under 5% carbon dioxide atmosphere. The medium was replaced with 4 μM Fluo-3-AM solution (20 mM HEPES, 137 mM NaCl, 2.7 mM KCl, 0.9 mM MgCl2, 5.0 mM CaCl2, 5.6 mM D-glucose, 2.5 mM probenecid, 0.5% BSA, and 0.04% Pluronic F-127, pH 7.5) and incubated at 37° C. under 5% dioxide carbon atmosphere for one hour. The plate was washed with washing buffer (20 mM HEPES, 137 mM NaCl, 2.7 mM KCl, 0.9 mM MgCl2, 5.0 mM CaCl2, 5.6 mM D-glucose, 2.5 mM probenecid, pH7.5), and each well was added with 20 μL of the washing buffer. The plate was placed in High-Throughput Screening System FLIPR 384 (Molecular Device Co.). Measurement of fluorescence intensity by FLIPR 384 was started, and 20 μL of DMSO solutions containing different concentrations of the test compound as prepared by dilution with dilution buffer (20 mM HEPES, 137 mM NaCl, 2.7 mM KCl, 0.9 mM MgCl2, 5.0 mM CaCl2, 5.6 mM D-glucose, 2.5 mM probenecid, 0.1% Pluronic F-127, pH7.5) were dispensed to each well through the built-in automatic dispenser. Five minutes after, 150 nM ATP solution (25 μL) prepared by dilution with the dilution buffer was dispensed through the built-in automatic dispenser, and the measurement of fluorescence intensity was continued for 4 min. For each well, the specific maximum fluorescence intensity was calculated as the ratio of the maximum fluorescence intensity after addition of the ATP solution to the fluorescence intensity at the starting of the measurement. […] The specific maximum fluorescence intensity and IC50 were calculated using Spotfire (Science & Technology Systems, Inc.)
Sequence of human P2X3 receptor (P56373 whole entry): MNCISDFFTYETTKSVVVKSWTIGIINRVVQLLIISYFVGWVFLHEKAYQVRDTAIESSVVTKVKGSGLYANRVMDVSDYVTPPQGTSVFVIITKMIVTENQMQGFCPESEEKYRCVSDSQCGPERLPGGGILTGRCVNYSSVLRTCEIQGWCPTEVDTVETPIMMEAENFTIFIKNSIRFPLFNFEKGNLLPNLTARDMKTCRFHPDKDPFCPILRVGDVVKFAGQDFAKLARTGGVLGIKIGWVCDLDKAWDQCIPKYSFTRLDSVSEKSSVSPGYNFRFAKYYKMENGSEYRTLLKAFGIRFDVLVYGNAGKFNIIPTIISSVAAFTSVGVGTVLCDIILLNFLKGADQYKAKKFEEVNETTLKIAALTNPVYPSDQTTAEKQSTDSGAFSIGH
`COC(=O)[C@H](C)[C@H](C)n1c(=O)[nH]/c(=N\c2ccc(Oc3ccc(F)cn3)cc2)n(Cc2ccc(C)cc2)c1=O` [Compound I-103] returned an IC50 of 7 nM.
In turn, `COC(=O)[C@H](C)[C@H](C)n1c(=O)[nH]/c(=N\c2ccc(Oc3cccc(F)n3)cc2)n(Cc2ccc(C)cc2)c1=O` [Compound I-104] had an IC50 of 5 nM.
Turning to `Cc1ccc(Cn2c(=O)n([C@@H](C)[C@@H](C)C(=O)O)c(=O)[nH]/c2=N\c2ccc(Oc3ccc(F)cn3)cc2)cc1` [Compound I-105], half-maximal inhibition (IC50) required 7 nM.
The molecule `Cc1ccc(Cn2c(=O)n([C@@H](C)[C@@H](C)C(=O)O)c(=O)[nH]/c2=N\c2ccc(Oc3cccc(F)n3)cc2)cc1` [Compound I-106] came in with a half-inhibitory concentration (IC50) of 6 nM.
On to `COC(=O)[C@H](C)[C@H](C)n1c(=O)[nH]/c(=N\c2ccc(Oc3cc(C)ccn3)cc2)n(Cc2ccc(Cl)cc2)c1=O` [Compound I-107], for which inhibition was half-maximal at 31 nM (IC50). This IC50 is about 5.2-fold higher than that of the molecule before.
On to `COC(=O)[C@@H](C)Cn1c(=O)[nH]/c(=N\c2ccc(Oc3ccc(C)cn3)cc2)n(Cc2ccc(C)cc2)c1=O` [Compound I-108], for which the IC50 is 4 nM.
The figure for `COC(=O)[C@H](C)[C@H](C)n1c(=O)[nH]/c(=N\c2ccc(Oc3ccc(C)cn3)cc2)n(Cc2ccc(C)cc2)c1=O` [Compound I-109] is 6 nM; for `COC(=O)C(C)(C)Cn1c(=O)[nH]/c(=N\c2ccc(Oc3ccc(C)cn3)cc2)n(Cc2ccc(C)cc2)c1=O` [Compound I-110] it is 4 nM.
`Cc1ccnc(Oc2ccc(/N=c3\[nH]c(=O)n([C@@H](C)[C@@H](C)C(=O)O)c(=O)n3Cc3ccc(Cl)cc3)cc2)c1` [Compound I-111]: half-maximal inhibition (IC50) was put at 9 nM.
For `Cc1ccc(Cn2c(=O)n(C[C@H](C)C(=O)O)c(=O)[nH]/c2=N\c2ccc(Oc3ccc(C)cn3)cc2)cc1` [Compound I-112], the midpoint of inhibition, the IC50, lay at 4 nM. Against the preceding molecule, the IC50 is about 2.2-fold lower.
Molecule `Cc1ccc(Cn2c(=O)n([C@@H](C)[C@@H](C)C(=O)O)c(=O)[nH]/c2=N\c2ccc(Oc3ccc(C)cn3)cc2)cc1` [Compound I-113] displayed an IC50 of 5 nM.
In the case of `Cc1ccc(Cn2c(=O)n(CC(C)(C)C(=O)O)c(=O)[nH]/c2=N\c2ccc(Oc3ccc(C)cn3)cc2)cc1` [Compound I-114], inhibition was half-maximal at 6 nM (IC50).
`COC(=O)[C@@H](C)Cn1c(=O)[nH]/c(=N\c2ccc(Oc3cccc(Cl)n3)cc2)n(Cc2ccc(C)cc2)c1=O` [Compound I-115] came in with an IC50 of 6 nM.
The molecule `COC(=O)C(C)(C)Cn1c(=O)[nH]/c(=N\c2ccc(Oc3cccc(Cl)n3)cc2)n(Cc2ccc(C)cc2)c1=O` [Compound I-116] displayed a concentration for half-maximal inhibition (IC50) of 7 nM.
The figure for `Cc1ccc(Cn2c(=O)n(C[C@H](C)C(=O)O)c(=O)[nH]/c2=N\c2ccc(Oc3ncccc3Cl)cc2)cc1` [Compound I-117] is 5 nM; for `Cc1ccc(Cn2c(=O)n(CC(C)(C)C(=O)O)c(=O)[nH]/c2=N\c2ccc(Oc3ncccc3Cl)cc2)cc1` [Compound I-118] it is 9 nM.
As for `Cc1ccc(Cn2c(=O)n(C[C@H](C)C(=O)O)c(=O)[nH]/c2=N\c2ccc(Oc3cccc(Cl)n3)cc2)cc1` [Compound I-119], the IC50 stood at 6 nM.
The figure for `COC(=O)[C@H](C)[C@H](C)n1c(=O)[nH]/c(=N\c2ccc(Oc3ccc(Cl)cn3)cc2)n(Cc2ccc(C)cc2)c1=O` [Compound I-120] is 9 nM; for `COC(=O)[C@H](Cn1c(=O)[nH]/c(=N\c2ccc(Oc3ccc(F)cn3)cc2)n(Cc2ccc(Cl)cc2)c1=O)OC` [Compound I-121] it is 6 nM; for `COC(=O)[C@H](Cn1c(=O)[nH]/c(=N\c2ccc(Oc3cccc(F)n3)cc2)n(Cc2ccc(Cl)cc2)c1=O)OC` [Compound I-122] it is 4 nM.
Take `Cc1ccc(Cn2c(=O)n([C@@H](C)[C@@H](C)C(=O)O)c(=O)[nH]/c2=N\c2ccc(Oc3ccc(Cl)cn3)cc2)cc1` [Compound I-123]: it took 5 nM to reach half-maximal inhibition (IC50).
`CO[C@@H](Cn1c(=O)[nH]/c(=N\c2ccc(Oc3ccc(F)cn3)cc2)n(Cc2ccc(Cl)cc2)c1=O)C(=O)O` [Compound I-124]: it took 5 nM to reach half-maximal inhibition (IC50).
`CO[C@@H](Cn1c(=O)[nH]/c(=N\c2ccc(Oc3cccc(F)n3)cc2)n(Cc2ccc(Cl)cc2)c1=O)C(=O)O` [Compound I-125] registered an IC50 of 5 nM.
For the molecule `COC(=O)[C@@H](C)Cn1c(=O)[nH]/c(=N\c2ccc(Oc3ccccn3)cc2)n(Cc2ccc(Cl)cc2)c1=O` [Compound I-126], inhibition was half-maximal at 5 nM (IC50).
In turn, `Cc1ccc(Cn2c(=O)n(CC(C)(C)C(=O)O)c(=O)[nH]/c2=N\c2ccc(Oc3cccc(Cl)n3)cc2)cc1` [Compound I-128] came in with an IC50 of 8 nM.
`COC(=O)[C@H](C)Cn1c(=O)[nH]/c(=N\c2ccc(Oc3ccccn3)cc2)n(Cc2ccc(Cl)cc2)c1=O` [Compound I-131] displayed an IC50 of 8 nM.
On to `COC(=O)[C@@H](C)Cn1c(=O)[nH]/c(=N\c2ccc(Oc3ccc(OC(F)F)cn3)cc2)n(Cc2ccc(C)cc2)c1=O` [Compound I-132], for which the IC50 is 8 nM.
In turn, `COC(=O)C(C)(C)Cn1c(=O)[nH]/c(=N\c2ccc(Oc3ccc(OC(F)F)cn3)cc2)n(Cc2ccc(C)cc2)c1=O` [Compound I-133] yielded an IC50 of 8 nM.
`C[C@@H](C(=O)O)[C@H](C)n1c(=O)[nH]/c(=N\c2ccc(Oc3cc(C#N)ccn3)cc2)n(Cc2ccc(Cl)cc2)c1=O` [Compound I-134] came in with an IC50 of 7 nM.
The figure for `Cc1ccc(Cn2c(=O)n(C[C@H](C)C(=O)O)c(=O)[nH]/c2=N\c2ccc(Oc3ccc(OC(F)F)cn3)cc2)cc1` [Compound I-135] is 4 nM; for `Cc1ccc(Cn2c(=O)n(CC(C)(C)C(=O)O)c(=O)[nH]/c2=N\c2ccc(Oc3ccc(OC(F)F)cn3)cc2)cc1` [Compound I-136] it is 7 nM.
The molecule `COC(=O)[C@H](C)[C@H](C)n1c(=O)[nH]/c(=N\c2ccc(Oc3ccc(OC(F)F)cn3)cc2)n(Cc2ccc(C)cc2)c1=O` [Compound I-137] displayed an IC50 of 14 nM.
In turn, `Cc1ccc(Cn2c(=O)n([C@@H](C)[C@@H](C)C(=O)O)c(=O)[nH]/c2=N\c2ccc(Oc3ccc(OC(F)F)cn3)cc2)cc1` [Compound I-138] displayed an IC50 of 7 nM.
As for `COC(=O)[C@@H](C)Cn1c(=O)[nH]/c(=N\c2ccc(Oc3cc(OC)ccn3)cc2)n(Cc2ccc(Cl)cc2)c1=O` [Compound I-139], the IC50 came out at 10 nM.
`COC(=O)[C@H](C)Cn1c(=O)[nH]/c(=N\c2ccc(Oc3ccccn3)cc2)n(Cc2ccc(C)cc2)c1=O` [Compound I-140] yielded an IC50 of 3 nM.
The molecule `C[C@H](Cn1c(=O)[nH]/c(=N\c2ccc(Oc3ccccn3)cc2)n(Cc2ccc(Cl)cc2)c1=O)C(=O)O` [Compound I-141] returned an IC50 of 14 nM.
In turn, `COC(=O)[C@@H](C)Cn1c(=O)[nH]/c(=N\c2ccc(Oc3ccccn3)cc2)n(C[C@H]2CC[C@H](C)CC2)c1=O` [Compound I-142] yielded a 50% inhibitory concentration (IC50) of 7 nM. This IC50 is about 2-fold lower than that of the molecule before.
`COC(=O)[C@H](Cn1c(=O)[nH]/c(=N\c2ccc(Oc3ccccn3)cc2)n(Cc2ccc(Cl)cc2)c1=O)OC` [Compound I-143] registered an IC50 of 5 nM.
The figure for `COC(=O)[C@H](C)[C@H](C)n1c(=O)[nH]/c(=N\c2ccc(Oc3ccccn3)cc2)n(Cc2ccc(Cl)cc2)c1=O` [Compound I-144] is 9 nM; for `C[C@@H](Cn1c(=O)[nH]/c(=N\c2ccc(Oc3ccccn3)cc2)n(C[C@H]2CC[C@H](C)CC2)c1=O)C(=O)O` [Compound I-145] it is 6 nM.
As for `CO[C@@H](Cn1c(=O)[nH]/c(=N\c2ccc(Oc3ccccn3)cc2)n(Cc2ccc(Cl)cc2)c1=O)C(=O)O` [Compound I-146], it took 5 nM to reach half-maximal inhibition (IC50).
On to `C[C@@H](C(=O)O)[C@H](C)n1c(=O)[nH]/c(=N\c2ccc(Oc3ccccn3)cc2)n(Cc2ccc(Cl)cc2)c1=O` [Compound I-147], for which 7 nM corresponded to half-maximal inhibition (IC50).
Take `Cc1ccc(Cn2c(=O)n(C[C@@H](C)C(=O)O)c(=O)[nH]/c2=N\c2ccc(Oc3ccccn3)cc2)cc1` [Compound I-148]: the IC50 stood at 9 nM. This IC50 and that of the molecule before are within 1.5-fold of each other.
The figure for `COC(=O)C(C)(C)Cn1c(=O)[nH]/c(=N\c2ccc(Oc3ccccn3)cc2)n(Cc2ccc(Cl)cc2)c1=O` [Compound I-149] is 5 nM.
For the molecule `COC(=O)C(C)(C)Cn1c(=O)[nH]/c(=N\c2ccc(Oc3ccccn3)cc2)n(Cc2ccc(C)cc2)c1=O` [Compound I-150], the IC50 was 4 nM.
For the molecule `COC(=O)[C@@H](C)[C@@H](C)n1c(=O)[nH]/c(=N\c2ccc(Oc3ccccn3)cc2)n(Cc2ccc(Cl)cc2)c1=O` [Compound I-151], the IC50 worked out at 10 nM.
The figure for `C[C@H](C(=O)O)[C@@H](C)n1c(=O)[nH]/c(=N\c2ccc(Oc3ccccn3)cc2)n(Cc2ccc(Cl)cc2)c1=O` [Compound I-152] is 6 nM; for `COC(=O)[C@@H](C)Cn1c(=O)[nH]/c(=N\c2ccc(Oc3ncccc3OC)cc2)n(Cc2ccc(Cl)cc2)c1=O` [Compound I-153] it is 13 nM.
